Reference: patent US8846330B2, “Methods and kits for the diagnosis of RyR1-related diseases” (The Henry M. Jackson Foundation for the Advancement of …, priority 2008, dated 2014)
“Also recorded” adds a separate entry of the source. Like-named read-outs stand apart in the source and are kept apart here.

Assays:
lymphocyte cells [1] = assay: 4CmC-induced adenosine in swine lymphocyte cells, nucleosides assay (Example 4); assay type: cell-based; details: for EC50: Sus scrofa, Lymphocyte; for peak ADO level upon 4CmC stimulation, mean±SEM: near 1 mM 4CmC
Experimental: Isolation of lymphocytes from whole blood: Lymphocyte cells were isolated from whole blood by Ficoll-Hypaque density gradient centrifugation technique (see Boyum A., Scand. J. Clip. Lab. 97:77-89 (1968)). Isolated lymphocyte cells were dispensed into 3-volume normal Hanks' balanced salt solution (HBSS) and centrifuged (10 minutes at 1000 RPM). The pellet was re-suspended in HBSS to lyse contaminating erythrocytes and spun. The later step was repeated one more time. To maintain simplicity of the protocol for possible MH diagnostic purposes no further purification was attempted. Lymphocyte cells were then cultured in RPMI-1640 media supplemented with 10% fetal bovine serum, […] penicillin and 2 mM glutamine. Cell cultures were incubated at 37° C. in a humidified chamber with 5% CO2. All experiments were completed within 4 days after isolation of lymphocyte cells from whole blood samples.
Nucleosides Assay Protocol: Briefly, lymphocyte cells (1−2×10^6 cells/test) were suspended in HBSS with or without Ca^2+/Mg^2+ (as indicated for each experiment) plus 0.1% bovine serum albumin (BSA). Experiments were carried out in the presence of the adenosine deaminase inhibitor erythro-9-(2-hydroxy-3-nonyl) adenine-HCl ([…]) to prevent deamination of adenosine to inosine (Lorbar et al., J Mol Cell Cardiol 31: 401-12 (1999)) and incubated at 37° C. for 10 minutes followed by treatment with different 4CmC concentrations (0.05-10 mM). Further incubation at 37° C. for an additional 45 minutes was also carried out. Final volumes of the test tubes were adjusted to 0.2 ml using HBSS buffer. Termination of the cell activity and purification of samples was accomplished by addition of 0.1 ml 12% perchloric acid followed by centrifugation at 5000 RPM for 10 minutes. Aliquots of the supernatant (50 μl) were assayed for adenosine and inosine content using HPLC.
HPLC Conditions: The HPLC system consisted of a Waters Symmetry C18 column (4.6×250 mm) and mobile phase of 94% KH2PO4 (50 mM, pH 4.6) containing 1-heptanesulfonic acid (0.5 mM) and 6% acetonitrile. Under these conditions, retention times for inosine and adenosine were 4 and 7.3 min, respectively. Peak width of inosine and adenosine were 18 and 36 seconds, respectively. Eluting compounds were detected by their absorbance at 254 nm using a Waters photodiode array detector (model 996). Sample adenosine and inosine concentrations were obtained using a calibrated standard curve of concentrations vs. peak area.
Statistics: Sample nucleosides concentrations were normalized to represent per 1 million cells and presented as means±SEM. The t-test was applied to test for differences between agonist-induced nucleosides in lymphocyte cells from MHS and normal swine. A P<0.05 considered to indicate statistical significance.

lymphocyte cells [2] = assay: 4CmC-induced adenosine in human lymphocyte / immortalized B cells (Example 3); assay type: cell-based; details: for ADO level at maximum of 4CmC dose response, mean±SEM: 2 mM 4CmC, EHNA 0.1 mM

Compound: Cc1cc(O)ccc1Cl [4CmC, 4-chloro-m-cresol]
- 4CmC-induced ADO in lymphocyte cells from MHS swine versus normal swine (lymphocyte cells [1]): significantly greater; also recorded: significantly higher
- 4CmC-induced ADO, mean±SEM (lymphocyte cells [1]; 1 mM 4CmC, Ca2+/Mg2+-free HBSS, normal swine (n=6)): 0.244 ± 0.026 µM
- basal plus 4CmC-induced ADO range (lymphocyte cells [1]; 1 mM 4CmC, MHS swine cells): 0.250 to 0.537 µM
- 4CmC-induced ADO, mean±SEM (lymphocyte cells [1]; 1 mM 4CmC, normal HBSS, normal swine (n=6)): 0.326 ± 0.023 µM
- increase in ADO formation in the presence of extracellular Ca2+ (lymphocyte cells [1]; 1 mM 4CmC, normal swine): 25.2±5.1%
- basal plus 4CmC-induced ADO range (lymphocyte cells [1]; 1 mM 4CmC, normal swine cells): 0.145 to 0.209 µM
- 4CmC-induced ADO, mean±SEM (lymphocyte cells [1]; 2 mM 4CmC, absence of extracellular Ca2+, normal swine): 0.167 ± 0.018 µM
- 4CmC-induced adenosine relative to basal adenosine level (lymphocyte cells [1]; 2 mM 4CmC, no FCCP, Ca2+/Mg2+ free HBSS, normal swine (n=5)): 5.8 fold
- increase in 4CmC-induced ADO formation in the presence of extracellular Ca2+ (lymphocyte cells [1]; 2 mM 4CmC, normal swine): 41±3.3%
- 4CmC-induced ADO, mean±SEM (lymphocyte cells [1]; 2 mM 4CmC, presence of extracellular Ca2+, normal swine): 0.284 ± 0.023 µM
- increase in sensitivity to 4CmC in the MHS cell population (lymphocyte cells [1]; MHS vs normal swine cells): ~60%
- EC50 (lymphocyte cells [1]; read-out: estimated EC50 of 4CmC for ADO formation, MHS swine cells): 550 ± 60 µM
- EC50 (lymphocyte cells [1]; read-out: estimated EC50 of 4CmC for ADO formation, normal swine cells): 340 ± 40 µM
- peak ADO level upon 4CmC stimulation, mean±SEM (lymphocyte cells [1]; normal HBSS, MHS swine cells (n=7)): 0.389 ± 0.033 µM
- peak ADO level upon 4CmC stimulation, mean±SEM (lymphocyte cells [1]; normal HBSS, normal swine cells (n=7)): 0.199 ± 0.005 µM
- 4CmC concentration at which ADO levels peaked (lymphocyte cells [1]; swine lymphocytes, normal HBSS): ~1 mM
- ADO level at maximum of 4CmC dose response, mean±SEM (lymphocyte cells [2]; MHS cells): 1.71 ± 0.13 µM
- ADO level at maximum of 4CmC dose response, mean±SEM (lymphocyte cells [2]; normal cells): 0.61 ± 0.11 µM
- 4CmC-induced adenosine in MHS (CHCT-positive) versus normal / CHCT-negative lymphocyte cells (lymphocyte cells [2]; FIG. 5 and 6): significantly higher; also recorded: significantly greater
- 4CmC concentration at which ADO levels maximized (lymphocyte cells [2]; human lymphocytes): 2 mM
